Experimental data published in ChEMBL document CHEMBL2150908, “Discovery of 2-Alkyl-1-arylsulfonylprolinamides as 11β-Hydroxysteroid Dehydrogenase Type 1 Inhibitors” (ACS Med Chem Lett, 2012).

Assays:
[1] = target: 11-beta-hydroxysteroid dehydrogenase 1 (Mus musculus) (UniProt P50172); experiment: Inhibition of mouse 11betaHSD1 at 100 nM by scintillation proximity assay
[2] = target: T1, 11-beta-hydroxysteroid dehydrogenase 1 (Homo sapiens, UniProt P28845); experiment: Inhibition of human 11betaHSD1 at 100 nM by scintillation proximity assay
Target sequence in this assay (P28845 whole entry, looked up): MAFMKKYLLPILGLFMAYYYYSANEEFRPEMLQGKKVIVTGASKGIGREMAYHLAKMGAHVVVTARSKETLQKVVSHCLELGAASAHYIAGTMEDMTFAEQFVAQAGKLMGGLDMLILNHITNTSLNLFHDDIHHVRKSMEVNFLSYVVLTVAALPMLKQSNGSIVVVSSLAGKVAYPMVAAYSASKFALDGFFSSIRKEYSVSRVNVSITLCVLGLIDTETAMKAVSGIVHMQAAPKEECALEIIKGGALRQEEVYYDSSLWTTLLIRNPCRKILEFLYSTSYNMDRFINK

[3] = Intrinsic clearance in human liver microsomes assessed as per mg of protein; format: ADME, Microsome; conditions: read-out: CLH
[4] = target: T2, 11-beta-hydroxysteroid dehydrogenase 1 (Mus musculus, UniProt P50172); experiment: Inhibition of mouse 11betaHSD1 by scintillation proximity assay
T2 sequence (P50172 whole entry): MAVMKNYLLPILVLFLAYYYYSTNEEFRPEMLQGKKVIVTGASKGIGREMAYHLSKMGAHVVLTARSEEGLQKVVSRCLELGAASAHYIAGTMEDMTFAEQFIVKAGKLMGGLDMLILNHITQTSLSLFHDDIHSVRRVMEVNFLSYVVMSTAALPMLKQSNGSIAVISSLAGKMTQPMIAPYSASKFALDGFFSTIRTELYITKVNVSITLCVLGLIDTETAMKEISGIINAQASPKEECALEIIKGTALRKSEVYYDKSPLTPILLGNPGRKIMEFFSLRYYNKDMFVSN

[5] = target: T1, 11-beta-hydroxysteroid dehydrogenase 1; experiment: Inhibition of human 11betaHSD1 by scintillation proximity assay
Target sequence in this assay (P28845 whole entry): as the sequence (P28845 whole entry, looked up) above

[6] = target: T2, 11-beta-hydroxysteroid dehydrogenase 1; experiment: Inhibition of mouse 11betaHSD1 in 3T3L1 cells assessed as conversion of [1,2-(N)3H]-cortisone to cortisol after 1 hr by liquid scintillation counter; format: cell-based, 3T3-L1
[7] = species: Mus musculus; experiment: Clearance in BALB/c mouse; format: ADME, organism-based; conditions: in vivo
[8] = tested on: Mus musculus; experiment: Inhibition of 11betaHSD1 in BALB/c mouse using prednisone as substrate assessed as reduction of prednisolone production at 30 mg/kg, ip administered 1 hr prior to substrate addition measured after 2 mins post substrate addition by LC/MS/MS analysis; format: functional; conditions: route intraperitoneal
[9] = tested on: Mus musculus; experiment: Inhibition of 11betaHSD1 in BALB/c mouse using prednisone as substrate assessed as reduction of prednisolone production at 10 mg/kg, ip administered 1 hr prior to substrate addition measured after 2 mins post substrate addition by LC/MS/MS analysis; format: functional; conditions: route intraperitoneal
[10] = AUC (0 to t) in BALB/c mouse at 5 mg/kg, ip; format: ADME, organism-based; design: dose 5 mg/kg, route intraperitoneal; conditions: plasma
[11] = Bioavailability in BALB/c mouse at 5 mg/kg, ip; format: ADME, organism-based; conditions: in vivo
[12] = Oral bioavailability in BALB/c mouse at 5 mg/kg; format: ADME, organism-based; conditions: in vivo
[13] = tested on: Mus musculus; experiment: Inhibition of 11betaHSD1 in BALB/c mouse using prednisone as substrate assessed as reduction of prednisolone production at 3 mg/kg, ip administered 1 hr prior to substrate addition measured after 2 mins post substrate addition by LC/MS/MS analysis; format: functional; conditions: route intraperitoneal
[14] = tested on: Mus musculus; experiment: Inhibition of 11betaHSD1 in ip dosed BALB/c mouse using prednisone as substrate assessed as reduction of prednisolone production administered 1 hr prior to substrate addition measured after 2 mins post substrate addition by LC/MS/MS analysis; format: functional, organism-based
[15] = Half life in BALB/c mouse at 1 mg/kg, iv; format: ADME, organism-based; design: dose 1 mg/kg, route intravenous; conditions: in vivo
[16] = Volume of distribution at steady state in BALB/c mouse; format: ADME, organism-based; conditions: in vivo, read-out: Vdss
[17] = target: T3, 11-beta-hydroxysteroid dehydrogenase type 2 (Homo sapiens, UniProt P80365); experiment: Inhibition of human 11betaHSD2
T3 sequence (P80365 whole entry): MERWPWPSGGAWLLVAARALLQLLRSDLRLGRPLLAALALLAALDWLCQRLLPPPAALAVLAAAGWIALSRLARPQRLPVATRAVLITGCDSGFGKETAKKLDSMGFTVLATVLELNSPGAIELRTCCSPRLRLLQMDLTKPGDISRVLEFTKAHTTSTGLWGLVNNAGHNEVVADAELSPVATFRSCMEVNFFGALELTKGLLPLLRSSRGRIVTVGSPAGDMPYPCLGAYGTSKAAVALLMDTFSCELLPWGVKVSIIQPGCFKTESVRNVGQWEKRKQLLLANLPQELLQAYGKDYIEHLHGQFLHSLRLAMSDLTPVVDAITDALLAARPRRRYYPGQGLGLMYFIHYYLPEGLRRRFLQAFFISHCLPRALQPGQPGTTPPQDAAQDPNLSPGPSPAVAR

[18] = tested on: Mus musculus; experiment: Inhibition of 11betaHSD1 in BALB/c mouse using prednisone as substrate assessed as remaining prednisolone level at 3 mg/kg, ip administered 1 hr prior to substrate addition measured after 2 mins post substrate addition by LC/MS/MS analysis; format: functional; conditions: route intraperitoneal
[19] = tested on: Mus musculus; experiment: Inhibition of 11betaHSD1 in BALB/c mouse using prednisone as substrate assessed as remaining prednisolone level at 30 mg/kg, ip administered 1 hr prior to substrate addition measured after 2 mins post substrate addition by LC/MS/MS analysis; format: functional; conditions: route intraperitoneal
[20] = Plasma concentration in BALB/c mouse at 3 mg/kg, ip administered 1 hr prior to prednisone addition measured after 2 mins post prednisone addition by LC/MS/MS analysis; format: ADME, organism-based; design: dose 3 mg/kg, route intraperitoneal
[21] = Plasma concentration in BALB/c mouse at 10 mg/kg, ip administered 1 hr prior to prednisone addition measured after 2 mins post prednisone addition by LC/MS/MS analysis; format: ADME, organism-based; design: dose 10 mg/kg, route intraperitoneal
[22] = Plasma concentration in BALB/c mouse at 30 mg/kg, ip administered 1 hr prior to prednisone addition measured after 2 mins post prednisone addition by LC/MS/MS analysis; format: ADME, organism-based; design: dose 30 mg/kg, route intraperitoneal
[23] = tested on: Mus musculus; experiment: Inhibition of 11betaHSD1 in BALB/c mouse using prednisone as substrate assessed as remaining prednisolone level at 10 mg/kg, ip administered 1 hr prior to substrate addition measured after 2 mins post substrate addition by LC/MS/MS analysis; format: functional; conditions: route intraperitoneal

Chain of 11-beta-hydroxysteroid dehydrogenase 1 (Mus musculus) (P50172 whole entry, looked up): as the sequence (P50172 whole entry) above

Compound	inhibition [1]	microsomal CLint [3]	IC50 [4]	also measured
Cc1c(Cl)cccc1S(=O)(=O)N1CCC[C@]1(C)C(=O)NC12CC3CC(CC(O)(C3)C1)C2	18%	–	–	inhibition [2]: 35%
CO[C@H]1CC[C@H](NC(=O)[C@@]2(C)CCCN2S(=O)(=O)c2cccc(Cl)c2C)CC1	15%	–	–	inhibition [2]: 37%
CC(C)(C)c1ccc(S(=O)(=O)N2CCC[C@]2(C)C(=O)N[C@H]2C3CC4CC2C[C@](O)(C4)C3)cc1	12%	–	–	–
Cc1c(Cl)cccc1S(=O)(=O)N1CCC[C@@H]1C(=O)NC1CCCCC1	–	430 µL/min/mg	–	–
C[C@]1(C(=O)N[C@H]2C3CC4CC2C[C@](O)(C4)C3)CCCN1S(=O)(=O)c1ccc(-c2ccccc2)cc1	37%	87 µL/min/mg	–	–
CC(O)(c1ccc(S(=O)(=O)N2CCC[C@]2(C)C(=O)N[C@H]2C3CC4CC2C[C@](C#N)(C4)C3)cc1)C(F)(F)F (stereo not given in full)	9.5%	–	–	–
COC(=O)[C@H]1CC2COCC(C1)[C@H]2NC(=O)[C@@]1(C)CCCN1S(=O)(=O)c1cccc(Cl)c1C	33%	–	–	–
Cc1c(Cl)cccc1S(=O)(=O)N1CCC[C@]1(C)C(=O)N[C@H]1CC[C@H](O)CC1	13%	–	–	–
CC[C@]1(C(=O)N[C@H]2C3CC4CC2C[C@](O)(C4)C3)CCCN1S(=O)(=O)c1cccc2cccnc12	–	–	164 nM	–
C[C@]1(C(=O)N[C@H]2C3CC4CC2C[C@](O)(C4)C3)CCCN1S(=O)(=O)c1ccccc1C#N	–	–	125 nM	–
Cc1c(Cl)cccc1S(=O)(=O)N1CCC[C@@]1(C)C(=O)N[C@H]1C2CC3CC1C[C@](O)(C3)C2	–	–	63 nM	IC50 [5]: 3.1 nM
C[C@]1(C(=O)N[C@H]2C3CC4CC2C[C@](O)(C4)C3)CCCN1S(=O)(=O)c1ccc(Br)s1	–	57 µL/min/mg	97 nM	–
C[C@]1(C(=O)N[C@H]2C3CC4CC2C[C@](O)(C4)C3)CCCN1S(=O)(=O)c1cccc2cccnc12	–	51 µL/min/mg	11 nM	IC50 [6]: 11 nM; clearance [7]: 60 mL/min/kg; inhibition in vivo at 30 mg/kg [8]: 89%; inhibition in vivo at 10 mg/kg [9]: 71%; AUC(0-t) [10]: 939 ng·h/mL; bioavailability [11]: 33%; bioavailability [12]: 3%; inhibition in vivo at 3 mg/kg [13]: 34%; inhibition [14]: Dose-dependent effect; half-life [15]: 14 min; Vd [16]: 0.63 L/kg; IC50 [17]: > 10000 nM; IC50 [5]: 7.7 nM; Activity [18]: 66%; Activity [19]: 11%; concentration at 2 min [20]: 28 ng/mL; concentration at 2 min [21]: 80 ng/mL; concentration at 62 min [22]: 94 ng/mL; Activity [23]: 29%
C[C@]1(C(=O)N[C@H]2C3CC4CC2C[C@](O)(C4)C3)CCCN1S(=O)(=O)c1cccnc1	17%	55 µL/min/mg	–	–
C[C@]1(C(=O)N[C@H]2C3CC4CC2C[C@](O)(C4)C3)CCCN1S(=O)(=O)c1ccc(C#N)cc1Cl	–	134 µL/min/mg	146 nM	–
Cc1c(Cl)cccc1S(=O)(=O)N1CCC[C@]1(C)C(=O)NC1C2CC3CC(C2)CC1C3 (stereo not given in full)	–	499 µL/min/mg	64 nM	–
CC(=O)c1ccc(S(=O)(=O)N2CCC[C@]2(C)C(=O)N[C@H]2C3CC4CC2C[C@](O)(C4)C3)cc1	16%	12 µL/min/mg	–	–
COc1ccc(S(=O)(=O)N2CCC[C@]2(C)C(=O)N[C@H]2C3CC4CC2C[C@](O)(C4)C3)cc1OC	3%	132 µL/min/mg	–	–
Cc1c(Cl)cccc1S(=O)(=O)N1CCC[C@]1(C)C(=O)N[C@H]1C2CC3CC1C[C@](O)(C3)C2	–	106 µL/min/mg	1.3 nM	IC50 [6]: 121 nM; clearance [7]: 90 mL/min/kg; AUC(0-t) [10]: 597 ng·h/mL; bioavailability [11]: 63%; bioavailability [12]: 9.1%; half-life [15]: 14 min; Vd [16]: 0.51 L/kg; IC50 [17]: 2200 nM; IC50 [5]: 0.1 nM
COC(=O)[C@]12CC3CC(C1)[C@@H](NC(=O)[C@@]1(C)CCCN1S(=O)(=O)c1ccc(C(C)(O)C(F)(F)F)cc1)C(C3)C2 (stereo not given in full)	14%	–	–	–
C=CC[C@]1(C(=O)N[C@H]2C3CC4CC2C[C@](O)(C4)C3)CCCN1S(=O)(=O)c1cccc2cccnc12	–	–	87 nM	inhibition [2]: 33%
CN(C)c1cccc2c(S(=O)(=O)N3CCC[C@]3(C)C(=O)N[C@H]3C4CC5CC3C[C@](O)(C5)C4)cccc12	31%	148 µL/min/mg	–	–
Cc1c(Cl)cccc1S(=O)(=O)N1CCC[C@]1(C)C(=O)NC1CCCCC1	9.2%	140 µL/min/mg	–	–
C[C@]1(C(=O)N[C@H]2C3CC4CC2C[C@](O)(C4)C3)CCCN1S(=O)(=O)c1cccs1	–	15 µL/min/mg	112 nM	–
CC(O)(c1ccc(S(=O)(=O)N2CCC[C@]2(C)C(=O)N[C@H]2C3CC4CC2C[C@](O)(C4)C3)cc1)C(F)(F)F (stereo not given in full)	26%	64 µL/min/mg	–	–
